Biological target: T1, AsPC-1 HiBiT-KRASG12D (Homo sapiens, UniProt P01116, G12D)
T1 construct: insert the HiBiT tag onto the N-terminus of one or more of the endogenous KRAS alleles; endogenous in cells; host or cells: AsPC-1 (ATCC CRL-1682), CRISPR-Cas9 knock-in clone, one tagged allele
Assay: HiBiT degradation assay (G12D), AsPC-1 HiBiT-KRASG12D cells
Assay type: cell-based
Details: 24 hours treatment; for Dmax: ASPC1, AsPC-1 HiBiT-KRASG12D cells; for DC50: HiBiT luminescence
Summary of the method: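 HiBiT-KRAS abundance was read as Nano-Glo HiBiT lytic luminescence (45 min, room temperature) after a PBS wash. Before that, a 4 h alamar blue fluorescence read, normalized to DMSO, monitored viability. Treatment lasted 24 hours at 37 °C, in triplicate, using AsPC-1 cells with endogenous N-terminally HiBiT-tagged KRAS G12D.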

T1 sequence (P01116 1-188 isoform P01116-2 G12D): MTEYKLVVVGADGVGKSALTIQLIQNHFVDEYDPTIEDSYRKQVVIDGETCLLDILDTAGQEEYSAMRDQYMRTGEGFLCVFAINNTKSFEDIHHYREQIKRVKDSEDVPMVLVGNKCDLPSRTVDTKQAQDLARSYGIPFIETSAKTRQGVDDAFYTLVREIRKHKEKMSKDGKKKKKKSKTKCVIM

Row | Compound | Dmax (maximum degradation observed) [%] | DC50 (AsPC-1 HiBiT-KRASG12D cells) [nM] | AsPC-1 HiBiT-KRASG12D DMax (AsPC-1 HiBiT-KRASG12D cells, maximum degradation observed)
1 | CCc1cccc2cc(O)cc(-c3ncc4c(N5CC6CCC(C5)N6)nc(OC[C@@H]5CC[C@]6(COC(=O)N7CCN(c8cc([C@H](C(=O)N9C[C@H](O)C[C@H]9C(=O)N[C@@H](C)c9ccc(-c%10scnc%10C)cc9)C(C)C)on8)CC7)CCCN56)nc4c3F)c12 [Compound 342, [(3S,8S)-3-[[4-(3,8-diazabicyclo[3.2.1]octan-3-yl)-7-(8-ethyl-3-hydroxy-1-naphthyl)-8-fluoro-pyrido[4,3-d]pyrimidin-2-yl]oxymethyl]-1,2,3,5,6,7-hexahydropyrrolizin-8-yl]methyl 4-[5-[(1R)-1-[(2S,4R)-4-hydroxy-2-[[(1S)-1-[4-(4-methylthiazol-5-yl)phenyl]ethyl]carbamoyl]pyrrolidine-1-carbonyl]-isobutyl]isoxazol-3-yl]piperazine-1-carboxylate] | 80 to 100 | < 600 | 
2 | CCc1cccc2cc(O)cc(-c3ncc4c(N5CC6CCC(C5)N6)nc(OCCN5CCC(CCC6CN(c7cc([C@H](C(=O)N8C[C@H](O)C[C@H]8C(=O)N[C@@H](C)c8ccc(-c9scnc9C)cc8)C(C)C)on7)C6)CC5)nc4c3F)c12 (single isomer, unassigned) [Compound 250, (2S,4R)-1-[(2R*)-2-(3-{3-[2-(1-{2-[(4-{3,8-diazabicyclo[3.2.1]octan-3-yl}-7-(8-ethyl-3-hydroxynaphthalen-1-yl)-8-fluoropyrido[4,3-d]pyrimidin-2-yl)oxy]ethyl}piperidin-4-yl)ethyl]azetidin-1-yl}-1,2-oxazol-5-yl)-3-methylbutanoyl]-4-hydroxy-N-[(1S)-1-[4-(4-methyl-1,3-thiazol-5-yl)phenyl]ethyl] pyrrolidine-2-carboxamide] | 80 to 100 | < 600 | 
3 | CCc1cccc2cc(O)cc(-c3ncc4c(N5CC6CCC(C5)N6)nc(OCCN5CCC(C)(CCOc6cc([C@@H](C(=O)N7C[C@H](O)C[C@H]7C(=O)N[C@@H](C)c7ccc(-c8scnc8C)cc7)C(C)C)on6)CC5)nc4c3F)c12 [Compound 238] | 80 to 100 | < 600 | 
4 | CCc1cccc2cc(O)cc(-c3ncc4c(N5CCCCCC5)nc(OC[C@]56CCCN5[C@H](COC(=O)N5CC(Oc7cc([C@H](C(=O)N8C[C@H](O)C[C@H]8C(=O)N[C@@H](C)c8ccc(-c9scnc9C)cc8)C(C)C)on7)C5)CC6)nc4c3F)c12 [Compound 300] | 80 to 100 | < 600 | 
5 | CCc1cccc2cc(O)cc(-c3ncc4c(N5CC6CCC(C5)N6)nc(OCCN5CCC(CC6CCN(c7cc(C(C(=O)N8C[C@H](O)C[C@H]8C(=O)N[C@@H](C)c8ccc(-c9scnc9C)cc8)C(C)C)on7)CC6)CC5)nc4c3F)c12 (single isomer, unassigned) [Compound 320] |  | < 600 | A (80% < A ≤ 100%)
6 | C#Cc1c(F)ccc2cc(O)cc(-c3ncc4c(N5CC6CCC(C5)N6)nc(OCCN5CCC(CCC6CN(c7cc([C@H](C(=O)N8C[C@H](O)C[C@H]8C(=O)N[C@@H](C)c8ccc(-c9scnc9C)cc8)C(C)C)on7)C6)CC5)nc4c3F)c12 [Compound 184] | 80 to 100 | < 600 | 
7 | CCc1cccc2cc(O)cc(-c3ncc4c(N5CC6CCC(C5)N6)nc(OC[C@@]56CCCN5[C@H](COC(=O)N5CC(Oc7cc([C@@H](C(=O)N8C[C@H](O)C[C@H]8C(=O)N[C@@H](C)c8ccc(-c9scnc9C)cc8)C(C)C)on7)C5)CC6)nc4c3F)c12 [Compound 127, [(3S,7aS)-7a-{[(4-{3,8-diazabicyclo[3.2.1]octan-3-yl}-7-(8-ethyl-3-hydroxynaphthalen-1-yl)-8-fluoropyrido[4,3-d]pyrimidin-2-yl)oxy]methyl}-hexahydro-1H-pyrrolizin-3-yl]methyl 3-({5-[(2S)-1-[(2S,4R)-4-hydroxy-2-{[(1S)-1-[4-(4-methyl-1,3-thiazol-5-yl)phenyl]ethyl]carbamoyl}pyrrolidin-1-yl]-3-methyl-1-oxobutan-2-yl]-1,2-oxazol-3-yl}oxy)azetidine-1-carboxylate] | < 20 | 600 to 1000 | 
8 | CCc1cccc2cc(O)cc(-c3ncc4c(N5CC6CCC(C5)N6)nc(OC[C@@]56CCCN5[C@H](COC(=O)NCc5cc([C@@H](C(=O)N7C[C@H](O)C[C@H]7C(=O)N[C@@H](C)c7ccc(-c8scnc8C)cc7)C(C)C)on5)CC6)nc4c3F)c12 [Compound 100, [(3S,7aS)-7a-{[(4-{3,8-diazabicyclo[3.2.1]octan-3-yl}-7-(8-ethyl-3-hydroxynaphthalen-1-yl)-8-fluoropyrido[4,3-d]pyrimidin-2-yl)oxy]methyl}-hexahydro-1H-pyrrolizin-3-yl]methyl N-({5-[(2S)-1-[(2S,4R)-4-hydroxy-2-{[(1S)-1-[4-(4-methyl-1,3-thiazol-5-yl)phenyl]ethyl]carbamoyl}pyrrolidin-1-yl]-3-methyl-1-oxobutan-2-yl]-1,2-oxazol-3-yl}methyl) carbamate] | 20 to 60 | 1000 to 3000 | 
9 | C#Cc1c(F)ccc2cc(O)cc(-c3ncc4c(N5CC6CCC(C5)N6)nc(OCCN5CCC(CN6CCN(c7cc([C@@H](C(=O)N8C[C@H](O)C[C@H]8C(=O)N[C@@H](C)c8ccc(-c9ccnn9C)cc8)C(C)C)on7)CC6)CC5)nc4c3F)c12 [Compound 170, (2S,4R)-1-[(2S)-2-(3-{4-[(1-{2-[(4-{3,8-diazabicyclo[3.2.1]octan-3-yl}-7-(8-ethynyl-7-fluoro-3-hydroxynaphthalen-1-yl)-8-fluoropyrido[4,3-d]pyrimidin-2-yl)oxy]ethyl}piperidin-4-yl)methyl]piperazin-1-yl}-1,2-oxazol-5-yl)-3-methylbutanoyl]-4-hydroxy-N-[(1S)-1-[4-(1-methyl-1H-pyrazol-5-yl)phenyl]ethyl]pyrrolidine-2-carboxamide] | 20 to 60 | 1000 to 3000 | 
10 | CCc1cccc2cc(O)cc(-c3ncc4c(N5CC6CCC(C5)N6)nc(N5CC(N6CCC(CC7CN(c8cc([C@@H](C(=O)N9C[C@H](O)C[C@H]9C(=O)N[C@@H](C)c9ccc(-c%10scnc%10C)cc9)C(C)C)on8)C7)CC6)C5)nc4c3F)c12 [Compound 180] |  | > 3000 | 
11 | Cc1ncsc1-c1ccc([C@H](C)NC(=O)[C@@H]2C[C@@H](O)CN2C(=O)[C@H](c2cc(OC[C@@H]3CC[C@]4(COc5nc(N6CC7CCC(C6)N7)c6cnc(-c7cccc8ccc(F)c(F)c78)c(F)c6n5)CCCN34)no2)C(C)C)cc1 [Compound 62, (2S,4R)-1-[(2S)-2-(3-{[(3S,7aS)-7a-{[(4-{3,8-diazabicyclo[3.2.1]octan-3-yl}-7-(7,8-difluoronaphthalen-1-yl)-8-fluoropyrido[4,3-d]pyrimidin-2-yl)oxy]methyl}-hexahydro-1H-pyrrolizin-3-yl]methoxy}-1,2-oxazol-5-yl)-3-methylbutanoyl]-4-hydroxy-N-[(1S)-1-[4-(4-methyl-1,3-thiazol-5-yl)phenyl]ethyl]pyrrolidine-2-carboxamide] |  | > 3000 | 
12 | CCc1cccc2cccc(-c3ncc4c(N5CC6CCC(C5)N6)nc(OC[C@@H]5CC[C@@H](COC(=O)N6CCN(c7cc([C@H](C(=O)N8C[C@H](O)C[C@H]8C(=O)N[C@@H](C)c8ccc(-c9scnc9C)cc8)C(C)C)on7)[C@H](C)C6)N5C)nc4c3F)c12 [Compound 222, [(2S,5S)-5-{[(4-{3,8-diazabicyclo[3.2.1]octan-3-yl}-7-(8-ethylnaphthalen-1-yl)-8-fluoropyrido[4,3-d]pyrimidin-2-yl)oxy]methyl}-1-methylpyrrolidin-2-yl]methyl (3R)-4-{5-[(2R)-1-[(2S,4R)-4-hydroxy-2-{[(1S)-1-[4-(4-methyl-1,3-thiazol-5-yl)phenyl]ethyl]carbamoyl}pyrrolidin-1-yl]-3-methyl-1-oxobutan-2-yl]-1,2-oxazol-3-yl}-3-methylpiperazine-1-carboxylate] | 60 to 80 | < 600 | 
13 | CCc1cccc2cc(O)cc(-c3ncc4c(N5CC6CCC(C5)N6)nc(OC[C@@H]5CC[C@@H](COC(=O)N6CC(Oc7cc([C@@H](C(=O)N8C[C@H](O)C[C@H]8C(=O)N[C@@H](C)c8ccc(-c9scnc9C)cc8)C(C)C)on7)C6)N5C)nc4c3F)c12 [Compound 291] | < 20 | < 600 | 
14 | CCc1cccc2cc(O)cc(-c3ncc4c(N5CC6CCC(C5)N6)nc(OC[C@]56CCCN5[C@H](COC(=O)N5CCC(Oc7cc([C@@H](C(=O)N8C[C@H](O)C[C@H]8C(=O)N[C@@H](C)c8ccc(-c9scnc9C)cc8)C(C)C)on7)CC5)CC6)nc4c3F)c12 [Compound 119, [(3S,7aR)-7a-{[(4-{3,8-diazabicyclo[3.2.1]octan-3-yl}-7-(8-ethyl-3-hydroxynaphthalen-1-yl)-8-fluoropyrido[4,3-d]pyrimidin-2-yl)oxy]methyl}-hexahydro-1H-pyrrolizin-3-yl]methyl 4-({5-[(2S)-1-[(2S,4R)-4-hydroxy-2-{[(1S)-1-[4-(4-methyl-1,3-thiazol-5-yl)phenyl]ethyl]carbamoyl}pyrrolidin-1-yl]-3-methyl-1-oxobutan-2-yl]-1,2-oxazol-3-yl}oxy)piperidine-1-carboxylate] | 20 to 60 | < 600 | 
15 | CCc1cccc2cc(O)cc(-c3ncc4c(N5CC6CCC(C5)N6)nc(OCCN5CCC(F)(CC6CCN(c7cc([C@@H](C(=O)N8C[C@H](O)C[C@H]8C(=O)N[C@@H](C)c8ccc(-c9scnc9C)cc8)C(C)C)on7)CC6)CC5)nc4c3F)c12 [Compound 240] |  | > 3000 | 
16 | CCc1cccc2cc(O)cc(-c3cc4nc(OC[C@]56CCCN5[C@H](COC(=O)N5CCN(c7cc(C(C(=O)N8C[C@H](O)C[C@H]8C(=O)N[C@@H](C)c8ccc(-c9scnc9C)cc8)C(C)C)on7)CC5)CC6)nc(N5CC6CCC(C5)N6)c4cn3)c12 (single isomer, unassigned) [Compound 266] | 80 to 100 | < 600 | 
